Source: patent US10259848B2, “Compositions and methods comprising hydrocarbon-stapled polypeptides” (Dana-Farber Cancer Institute, Inc., priority 2008, dated 2019)
Where two headings read alike, the source gives them in different places. Positions of bridges follow the written chain, without caps; N, C: chain ends. Non-standard residues stand in square brackets, D forms with d. Residues, ends and D or L forms follow the SMILES beside them. No end group written: not given here. S5 = C=CCCC[C@](C)(N)C(=O)O; Nle = CCCC[C@H](N)C(=O)O

Key:
[1] = Circular dichroism, calculated α-helical content; assay type: physicochemical; settings: for α-helical content: comparative CD spectra, 20-mer residues 626-645
Method: The α-helicity of stapled modified polypeptides can be compared to their unmodified counterparts by circular dichroism. CD spectra can be obtained on a Jasco J-710 or Aviv spectropolarimeter at 20° C. using the following standard measurement parameters: wavelength, 190-260 nm; step resolution, 0.5 nm; speed, […]; accumulations, 10; response, 1 sec; bandwidth, 1 nm; path length, 0.1 cm. The α-helical content of each peptide is calculated by dividing the mean residue ellipticity [Θ]222obs by the reported [Θ]222obs for a model helical peptide (Forood, B., E. J. Feliciano, and K. P. Nambiar, PNAS, 1993. 90(3): p. 838-842; J. Martin Scholtz, Biopolymers, 1991. 31(13): p. 1463-1470; Lawless, M. K., et al., Biochemistry, 1996. 35(42): p. 13697-13708) or using, for example, the Aviv machine using CDNN software developed by Brohm in order to deduce five different secondary structure fractions (helix, parallel and antiparallel beta-sheet, beta-turn and random coil). Protein Engineering, 1992. 5(3); p. 191-195
To optimize the activity of tSAH-gp41 peptides, an alternative strategy based upon inserting one or more hydrocarbon staples into the full-length gp41-HR-2 constructs was pursued (FIG. 11, 12).

syncytia formation = experiment: HIV syncytial formation assay; assay type: cell-based, HIV-1
Method: Functional assays can also be used to evaluate the modified polypeptides activity. In culture, multinucleated giant cells or “syncytia” form as a result of direct cell-cell fusion between HIV-1-infected and uninfected CD4-positive cells. In the syncytia formation assay, an indicator cell line expressing the CD4 receptor, and a fusogenic cell line that lacks the CD4 receptor but contains HIV-1 proteins on the surface, fuse to generate 70-100 multinucleated giant cells in culture within 48 h. Syncytia are then counted using an inverted microscope. The ability of stabilized alpha helix of gp41 (SAH-gp41) compounds to inhibit syncytia formation in a dose-responsive fashion is used as a functional measure of fusion inhibition, for which IC50s can be determined and compared with peptides T20 and T649 (Brenner, T. J., et al. The Lancet, 1991. 337(8748): p. 1001-1005; Madani, N., et al., Journal of Virology, 2007. 81(2): p. 532-538).
The compounds of the invention were assayed for inhibition of syncytial formation using methods well known to those skilled in the art. Equal amounts of either T20/gp41(638-673) or SAH-gp41(626-645)A were added to the media.

HIV-1 HXBc2 = experiment: Luciferase-based HIV infectivity assay, HXBc2; assay type: cell-based; settings: compared to T20
Method: Recombinant HIV-1 bearing the envelope glycoproteins from three distinct HIV-1 strains, HXBc2, ADA, and HXBc2P 3.2, and a negative control virus bearing the amphotropic murine leukemia virus (A-MLV) envelope glycoproteins, were evaluated.

FIGURE 16C = experiment: FIGURE 16C
Description: Table printed on a drawing sheet, FIGURE 16C
First reader's note: The sheet prints two blocks (626-662 and 638-673 series) under one head; per the description the half-lives are in the presence of chymotrypsin at pH 7.

FIGURE 16F = experiment: FIGURE 16F
Description: Table printed on a drawing sheet, FIGURE 16F

pepsin = experiment: Protease exposure under acidic conditions: pepsin, pH 2; settings: pepsin solution (protease exposure under acidic conditions)

CCCC[C@H](NC(C)=O)C(=O)N[C@H](C(=O)N[C@@H](Cc1c[nH]c2ccccc12)C(=O)N[C@@]1(C)CCCC=CCCC[C@@](C)(C(=O)N[C@@H](CCC(=O)O)C(=O)N[C@H](C(=O)N[C@@H](CC(N)=O)C(=O)N[C@@H](CC(N)=O)C(=O)N[C@@H](Cc2ccc(O)cc2)C(=O)N[C@H](C(=O)N[C@@H](CO)C(=O)N[C@@H](CC(C)C)C(=O)N[C@H](C(=O)N[C@@H](Cc2c[nH]cn2)C(=O)N[C@@H](CO)C(=O)N[C@@H](CC(C)C)C(N)=O)[C@@H](C)CC)[C@@H](C)O)[C@@H](C)CC)NC(=O)[C@H](CC(=O)O)NC(=O)[C@H](Cc2c[nH]c3ccccc23)NC(=O)[C@H](CCC(=O)O)NC1=O)[C@@H](C)O [SAH-gp41(626-645)(A)] (Ac-[Nle]TW[S5]EWD[S5]EINNYTSLIHSL-NH2; staple 4-8; N-terminus and C-terminus assumed)
α-helical content [1]: 48% | inhibition of syncytia formation (words) (syncytia formation): markedly enhanced inhibitory activity | inhibition of syncytia formation (words) (syncytia formation; listed as SAH-gp41(626-645)A): inhibited syncytial formation more so than unmodified control polypeptides | anti-HXBc2 activity (HIV-1 HXBc2): significant anti-HXBc2 activity

SAH-gp41(626-662)(A,F): doubly stapled gp41(626-662) HIV-1 fusion inhibitor peptide (LTWAEWDAEINNYTSLIHSLIEESQNQAEKNAQELLE; not fully specified (bridges); also: doubly stapled, places not given here)
half-life (FIGURE 16C): 5.02 h | half-life (FIGURE 16F): 34 h

gp41(626-645): unstapled 20-mer truncation of T649v consisting of residues 626-645 ([Nle]TW[Nle]EWDREINNYTSLIHSL) [reference compound]
α-helical content [1]: 20% | inhibition of syncytia formation (words) (syncytia formation): only modest anti-syncytial activity

enfuvirtide
calculated α-helical content ([1]; CD spectra at physiologic pH): ~25% | half-life at 25 μM (pepsin): 4 min
